Laboratory results published in patent US7649092B2, “Urea derivatives as calcium channel blockers” (Neuromed Pharmaceuticals Ltd., priority 2004, dated 2010).
pIC50: −log10 of the molar value. Where two headings read alike, the source gives them in different places.

Assays:
[1] = target: T1, human DiG T-type channels (Homo sapiens, UniProt O43497); test: T-type calcium channel block, whole-cell patch clamp in HEK cell lines; format: cell-based
T1 construct: expressed in transfected cells
Method: Standard patch-clamp techniques were employed to identify blockers of T-type currents. Briefly, previously described HEK cell lines stably expressing human DiG T-type channels were used for all the recordings (passage #: 4-20, 37° C., 5% CO2). To obtain T-type currents, plastic dishes containing semi-confluent cells were positioned on the stage of a ZEISS AXIOVERT S100 microscope after replacing the culture medium with external solution (see below). Whole-cell patches were obtained using pipettes (borosilicate glass with filament, O.D.: 1.5 mm, I.D.: 0.86 mm, 10 cm length), fabricated on a SUTTER P-97 puller with resistance values of ˜5 MΩ (see below for internal solution).
In the non-inactivating protocol, the holding potential is set at −110 mV and with a pre-pulse at −100 mV for 1 second prior to the test pulse at −40 mV for 50 ms. […]
Test compounds were dissolved in external solution, 0.1-0.01% DMSO. After ˜10 min rest, they were applied by gravity close to the cell using a WPI microfil tubing. The “non-inactivated” pre-pulse was used to examine the resting block of a compound. The “inactivated” protocol was employed to study voltage-dependent block. However, the initial data shown below were mainly obtained using the non-inactivated protocol only. IC50 values are shown for various compounds of the invention in Table 5.

[2] = target: T2, rat brain N-type calcium channel subunits (α1B+α2δ+β1b cDNA subunits) (Rattus norvegicus, UniProt Q02294); test: N-type calcium channel block, whole cell patch clamp in HEK 293 cells; format: cell-based; details: holding potential −80 mV to +10 mV
T2 construct: expressed in transfected cells
Method: N-type calcium channel blocking activity was assayed in human embryonic kidney cells, HEK 293, stably transfected with the rat brain N-type calcium channel subunits (α1B+α2δ+β1b cDNA subunits). Alternatively, N-type calcium channels (α1B+α2δ+β1b cDNA subunits), L-type channels (α1C+α2δ+β1b cDNA subunits) and P/Q-type channels (α1A+α2δ+β1b cDNA subunits) were transiently expressed in HEK 293 cells. Briefly, cells were cultured in Dulbecco's modified eagle medium (DMEM) supplemented with 10% fetal bovine serum, 200 U/ml penicillin and 0.2 mg/ml streptomycin at 37° C. with 5% CO2. At 85% confluency cells were split with 0.25% trypsin/1 mM EDTA and plated at 10% confluency on glass coverslips. At 12 hours the medium was replaced and the cells transiently transfected using a standard calcium phosphate protocol and the appropriate calcium channel cDNA's. Fresh DMEM was supplied and the cells transferred to 28° C./5% CO2. Cells were incubated for 1 to 2 days prior to whole cell recording.
Whole cell patch clamp experiments were performed using an Axopatch 200B amplifier (Axon Instruments, Burlingame, Calif.) linked to a personal computer equipped with pCLAMP software. The external and internal recording solutions contained, respectively, 5 mM BaCl2, 10 mM MgCl2, 10 mM HEPES, 40 mM TEAC1, 10 mM glucose, 87.5 mM CsCl (pH 7.2) and 108 mM CsMS, 4 mM MgCl2, 9 mM EGTA, 9 mM HEPES (pH 7.2). Currents were typically elicited from a holding potential of −80 mV to +10 mV using Clampex software (Axon Instruments). Typically, currents were first elicited with low frequency stimulation (0.067 Hz) and allowed to stabilize prior to application of the compounds. The compounds were then applied during the low frequency pulse trains for two to three minutes to assess tonic block, and subsequently the pulse frequency was increased to 0.2 Hz to assess frequency dependent block. Data were analyzed using Clampfit (Axon Instruments) and SigmaPlot 4.0 (Jandel Scientific).

[3] = tested on: rat formalin model; test: Formalin-induced pain model (paw flinches); format: in vivo; details: 30 mg/kg IP, 10 min before formalin, ±SEM, saline control=100%
Method: The effects of intrathecally delivered compounds of the invention on the rat formalin model were measured. The compounds were reconstituted to stock solutions of approximately 10 mg/ml in propylene glycol. Eight Holtzman male rats of 275-375 g size were randomly selected per test article.
The following study groups were used, with test article, vehicle control (propylene glycol) and saline delivered intraperitoneally (IP):
Prior to initiation of drug delivery baseline behavioral and testing data were taken.
On the morning of testing, a small metal band (0.5 g) was loosely placed around the right hind paw. The rat was placed in a cylindrical Plexiglas chamber for adaptation a minimum of 30 minutes. Test Article or Vehicle Control Article was administered 10 minutes prior to formalin injection (50 μl of 5% formalin) into the dorsal surface of the right hind paw of the rat. The animal was then placed into the chamber of the automated formalin apparatus where movement of the formalin injected paw was monitored and the number of paw flinches tallied by minute over the next 60 minutes (Malmberg, A. B., et al., Anesthesiology (1993) 79:270-281).
Results are presented as Maximum Possible Effect ±SEM, where saline control=100%.

[4] = inactivation protocol, @ −80 mV, read-out: IC50 @ −80 mV
[5] = non-inactivating protocol, pre-pulse −100 mV, test pulse −40 mV, read-out: IC50 @ −100 mV
[6] = low frequency stimulation 0.067 Hz (tonic block), read-out: IC50 @ 0.067 Hz
[7] = pulse frequency 0.2 Hz (frequency dependent block), read-out: IC50 @ 0.2 Hz

T1 sequence (O43497 whole entry): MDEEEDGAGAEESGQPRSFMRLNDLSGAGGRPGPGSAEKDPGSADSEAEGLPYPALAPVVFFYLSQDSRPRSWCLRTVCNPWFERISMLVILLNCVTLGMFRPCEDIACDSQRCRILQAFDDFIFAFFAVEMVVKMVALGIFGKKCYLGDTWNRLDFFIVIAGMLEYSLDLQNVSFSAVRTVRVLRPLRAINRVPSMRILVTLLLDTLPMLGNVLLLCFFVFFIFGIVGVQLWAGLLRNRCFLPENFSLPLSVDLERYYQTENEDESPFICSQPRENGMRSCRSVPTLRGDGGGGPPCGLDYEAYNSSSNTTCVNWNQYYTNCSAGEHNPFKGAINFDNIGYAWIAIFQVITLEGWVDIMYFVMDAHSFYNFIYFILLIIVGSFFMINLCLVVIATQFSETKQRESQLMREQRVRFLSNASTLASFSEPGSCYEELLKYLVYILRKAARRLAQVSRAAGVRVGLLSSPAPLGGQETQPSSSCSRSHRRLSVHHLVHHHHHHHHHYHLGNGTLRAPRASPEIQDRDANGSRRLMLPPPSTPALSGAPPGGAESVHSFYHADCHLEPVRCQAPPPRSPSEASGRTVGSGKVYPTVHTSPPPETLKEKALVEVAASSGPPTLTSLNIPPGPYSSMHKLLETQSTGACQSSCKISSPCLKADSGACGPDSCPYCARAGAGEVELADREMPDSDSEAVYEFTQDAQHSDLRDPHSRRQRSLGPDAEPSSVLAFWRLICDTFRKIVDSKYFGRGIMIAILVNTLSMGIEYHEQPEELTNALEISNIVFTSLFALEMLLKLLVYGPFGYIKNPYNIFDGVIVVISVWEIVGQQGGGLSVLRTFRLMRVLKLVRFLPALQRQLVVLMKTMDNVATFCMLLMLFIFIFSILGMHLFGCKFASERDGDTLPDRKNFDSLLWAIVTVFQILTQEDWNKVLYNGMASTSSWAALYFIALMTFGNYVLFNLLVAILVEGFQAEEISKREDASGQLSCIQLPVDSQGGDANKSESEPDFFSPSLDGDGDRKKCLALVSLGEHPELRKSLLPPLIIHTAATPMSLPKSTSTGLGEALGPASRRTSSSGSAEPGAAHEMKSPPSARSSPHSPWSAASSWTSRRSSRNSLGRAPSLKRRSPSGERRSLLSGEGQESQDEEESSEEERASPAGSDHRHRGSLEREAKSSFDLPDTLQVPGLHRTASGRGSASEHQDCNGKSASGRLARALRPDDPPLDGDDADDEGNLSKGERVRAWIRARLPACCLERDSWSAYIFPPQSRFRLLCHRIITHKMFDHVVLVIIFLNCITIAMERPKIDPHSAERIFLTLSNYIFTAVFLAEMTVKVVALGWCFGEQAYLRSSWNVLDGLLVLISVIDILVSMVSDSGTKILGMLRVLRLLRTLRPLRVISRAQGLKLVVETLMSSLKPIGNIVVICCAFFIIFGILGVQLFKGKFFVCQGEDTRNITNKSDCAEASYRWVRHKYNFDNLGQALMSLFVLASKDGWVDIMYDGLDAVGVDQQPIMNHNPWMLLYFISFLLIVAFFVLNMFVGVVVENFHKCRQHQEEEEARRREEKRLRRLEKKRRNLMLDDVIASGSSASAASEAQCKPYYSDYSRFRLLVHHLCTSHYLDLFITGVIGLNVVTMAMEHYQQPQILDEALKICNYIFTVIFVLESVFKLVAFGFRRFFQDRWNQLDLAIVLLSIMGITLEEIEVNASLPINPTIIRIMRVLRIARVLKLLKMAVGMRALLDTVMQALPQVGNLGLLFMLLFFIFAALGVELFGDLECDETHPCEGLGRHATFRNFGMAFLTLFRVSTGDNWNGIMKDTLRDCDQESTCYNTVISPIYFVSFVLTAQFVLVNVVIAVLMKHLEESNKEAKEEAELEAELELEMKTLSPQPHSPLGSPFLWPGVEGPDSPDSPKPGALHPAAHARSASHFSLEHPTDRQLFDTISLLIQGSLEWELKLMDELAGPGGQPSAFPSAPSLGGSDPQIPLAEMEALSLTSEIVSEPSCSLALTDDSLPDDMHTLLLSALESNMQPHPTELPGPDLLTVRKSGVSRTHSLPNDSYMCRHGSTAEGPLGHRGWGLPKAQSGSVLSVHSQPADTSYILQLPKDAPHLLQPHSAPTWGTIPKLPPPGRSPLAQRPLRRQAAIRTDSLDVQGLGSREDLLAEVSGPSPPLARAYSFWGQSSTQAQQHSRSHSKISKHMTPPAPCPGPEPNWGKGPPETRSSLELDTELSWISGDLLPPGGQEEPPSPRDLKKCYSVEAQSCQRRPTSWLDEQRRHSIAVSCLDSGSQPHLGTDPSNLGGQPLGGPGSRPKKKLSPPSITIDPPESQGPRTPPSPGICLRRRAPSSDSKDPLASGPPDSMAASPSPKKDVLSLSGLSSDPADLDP

pIC50 [1, 4] | pIC50 [1, 5] | pIC50 [2, 6] | pIC50 [2, 7] | Compound | Phase I (% MPE) [3] [% MPE] | Phase II Total (% MPE) [3] [% MPE] | Phase IIA (% MPE) [3] [% MPE] | Phase IIB (% MPE) [3] [% MPE]
– | – | 5.77 | 6.31 | CN1CCCC(CN2CCN(C(=O)NC(c3ccccc3)c3ccccc3)CC2)C1 (stereo not drawn) [Compound 12, 4-(1-Methyl-piperidin-3-ylmethyl)-piperazine-1-carboxylic acid benzhydryl-amide] | – | – | – | –
5.47 | 5.29 | – | – | CN1CCC(C(c2ccccc2)N2CCN(C(=O)NC(c3ccccc3)c3ccccc3)CC2)CC1 (stereo not drawn) [Compound 20, 4-[(1-Methyl-piperidin-4-yl)-phenyl-methyl]-piperazine-1-carboxylic acid benzhydryl-amide] | – | – | – | –
5.70 | 4.82 | 6.00 | 6.00 | O=C(NC(c1ccccc1)c1ccccc1)N1CCN(CCN2CCCC2)CC1 [Compound 21] | – | – | – | –
– | – | 5.20 | 5.67 | CN1CCCC(C(c2ccccc2)N2CCN(C(=O)NC(c3ccccc3)c3ccccc3)CC2)C1 (stereo not drawn) [Compound 22, 4-[(1-Methyl-piperidin-3-yl)-phenyl-methyl]-piperazine-1-carboxylic acid benzhydryl-amide] | – | – | – | –
– | – | < 5.23 | – | CN1CCC[C@H]1CN1CCN(C(=O)NC(c2ccccc2)c2ccccc2)CC1 [Compound 25] | – | – | – | –
< 5.17 | < 4.64 | < 4.70 | < 5.06 | CN(C(=O)N1CCN(CCN2CCCC2)CC1)C(c1ccccc1)c1ccccc1 [Compound 32, 4-(2-pyrrolidin-1-ylethyl)-piperazine-1-carboxylic acid benzhydryl-methyl-amide] | – | – | – | –
– | 6.18 | 5.46 | 5.67 | O=C(NC(c1ccccc1)c1ccccc1)N1CCN(C(c2ccccc2)C2CCNCC2)CC1 (stereo not drawn) [Compound 35, 4-[Piperidin-4-yl-phenyl-methyl]-piperazine-1-carboxylic acid benzhydryl-amide] | – | – | – | –
5.89 | 5.72 | – | – | Cc1ccc(C(C2CCN(C)CC2)N2CCN(C(=O)NC(c3ccccc3)c3ccccc3)CC2)c(C)c1 (stereo not drawn) [Compound 36, 4-[(1-Methyl-piperidin-4-yl)-(2,4-dimethyl-phenyl)-methyl]-piperazine-1-carboxylic acid benzhydryl-amide] | – | – | – | –
– | – | 5.88 | 6.04 | CN1CCC(C(c2ccccc2Cl)N2CCN(C(=O)NC(c3ccccc3)c3ccccc3)CC2)CC1 (stereo not drawn) [Compound 37, 4-[(1-Methyl-piperidin-4-yl)-(2-chloro-phenyl)-methyl]-piperazine-1-carboxylic acid benzhydryl-amide] | – | – | – | –
– | – | 5.48 | 5.81 | CN1CCC(C(c2cccc(Cl)c2)N2CCN(C(=O)NC(c3ccccc3)c3ccccc3)CC2)CC1 (stereo not drawn) [Compound 38, 4-[(1-Methyl-piperidin-4-yl)-(3-chloro-phenyl)-methyl]-piperazine-1-carboxylic acid benzhydryl-amide] | – | – | – | –
– | – | 6.18 | 6.51 | CN(C(=O)N1CCN(C(c2ccccc2)c2ccccc2)CC1)C(c1ccccc1)c1ccccc1 [Compound 39, 4-(Diphenyl-methyl)-piperazine-1-carboxylic acid benzhydryl-methyl-amide] | – | – | – | –

Continued, compound first:

Compound | pIC50 [1, 4] | pIC50 [1, 5] | pIC50 [2, 6] | pIC50 [2, 7] | Phase I (% MPE) [3] [% MPE] | Phase II Total (% MPE) [3] [% MPE] | Phase IIA (% MPE) [3] [% MPE] | Phase IIB (% MPE) [3] [% MPE]
O=C(NC(c1ccccc1)c1ccccc1)N1CCN(C(c2ccccc2)c2ccc(Cl)cc2Cl)CC1 (stereo not drawn) [Compound 2, 4-[(2,4-Dichloro-phenyl)-phenyl-methyl]-piperazine-1-carboxylic acid benzhydryl-amide] | 7.18 | 6.66 | 5.83 | 5.83 | – | – | – | –
Cc1ccc(C(c2ccccc2)N2CCN(C(=O)NC(c3ccccc3)c3ccccc3)CC2)c(C)c1 (stereo not drawn) [Compound 3] | 7.55 | 7.12 | 5.57 | 5.57 | – | – | – | –
O=C(NC(c1ccccc1)c1ccccc1)N1CCN(C(c2ccccc2)c2ccc(Cl)cc2)CC1 (stereo not drawn) [Compound 4, 4-[(4-Chloro-phenyl)-phenyl-methyl]-piperazine-1-carboxylic acid benzhydryl-amide] | 7.25 | 6.77 | 6.54 | 6.55 | 71 ± 15 | 74 ± 11 | 70 ± 13 | 88 ± 9
O=C(NC(c1ccccc1)c1ccccc1)N1CCN(C(c2ccccc2)c2cccc(Cl)c2)CC1 (stereo not drawn) [Compound 5, 4-[(3-Chloro-phenyl)-phenyl-methyl]-piperazine-1-carboxylic acid benzhydryl-amide] | 7.28 | 6.62 | 6.41 | 6.47 | 54 ± 11 | 65 ± 10 | 52 ± 10 | 105 ± 13
O=C(NC(c1ccccc1)c1ccccc1)N1CCN(C(c2ccccc2)c2ccccc2Cl)CC1 (stereo not drawn) [Compound 6, 4-[(2-Chloro-phenyl)-phenyl-methyl]-piperazine-1-carboxylic acid benzhydryl-amide] | 7.33 | 6.83 | 6.55 | 6.74 | 53 ± 10 | 71 ± 7 | 63 ± 9 | 99 ± 5
O=C(NC(c1ccccc1)c1ccccc1)N1CCN(C(c2ccccc2)c2cccc(Cl)c2Cl)CC1 (stereo not drawn) [Compound 7, 4-[(2,3-Dichloro-phenyl)-phenyl-methyl]-piperazine-1-carboxylic acid benzhydryl-amide] | 6.49 | 5.38 | 6.64 | 6.70 | 61 ± 6 | 71 ± 7 | 63 ± 9 | 85 ± 20
CN1CCC(CN2CCN(C(=O)NC(c3ccccc3)c3ccccc3)CC2)CC1 [Compound 10, 4-(1-Methyl-piperidin-4-yl-methyl)-piperazine-1-carboxylic acid benzhydryl-amide] | 4.70 | 4.70 | 6.59 | 6.59 | – | – | – | –
CN(C)CCCN1CCN(C(=O)NC(c2ccccc2)c2ccccc2)CC1 [Compound 11, 4-(3-Dimethylamino-propyl)-piperazine-1-carboxylic acid benzhydryl-amide] | – | – | 5.66 | 6.00 | 59 ± 13 | 60 ± 12 | 50 ± 14 | 94 ± 22
CN1CCC(C(c2ccc(Cl)cc2)N2CCN(C(=O)NC(c3ccccc3)c3ccccc3)CC2)CC1 (stereo not drawn) [Compound 24, 4-[(1-Methyl-piperidin-4-yl)-(4-chloro-phenyl)-methyl]-piperazine-1-carboxylic acid benzhydryl-amide] | – | – | 5.37 | 5.61 | – | – | – | –
